Source: patent publication US20260274853A1, “BIFUNCTIONAL COMPOUNDS CONTAINING PYRIMIDINE DERIVATIVES FOR DEGRADING CYCLIN-DEPENDENT KINASE 2 VIA UBIQUITIN PROTEASOME PATHWAY” (NIKANG THERAPEUTICS, INC., priority 2022, published 2026)

Columns and labels:
CDK2 [1] = target: T1, CDK2 (Homo sapiens, UniProt P24941); assay: Inhibition of CDK2: phospho-Rb (S807/811) HTRF measurement in OVCAR3 cells; assay type: cell-based; settings: 24 h compound treatment, read-out: pRb (nM), IC50 in pRB(S807/811) assay
T1 construct: High-Throughput Measurement of Cellular Endogenous CDK2; endogenous in cells; host or cells: OVCAR3

CDK2 [2] = target: T1, CDK2; assay: CDK2 HTRF assay: cellular endogenous CDK2 level in OVCAR3 cells; assay type: cell-based; settings: 24 hours compound treatment, read-out: DC50 (half maximal degradation concentration of CDK2)
Method in brief: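 Endogenous CDK2 degradation in OVCAR3 cells after 24 h compound treatment at 0.3–10,000 nM. Lysates assayed with an HTRF total-CDK2 two-antibody kit, TR-FRET 665/620 ratio normalized to DMSO. DC50 from four-parameter logistic fit, reported as potency bins.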

| IC50 (CDK2 [1]) [nM] | DC50 (CDK2 [2]) [nM] | SMILES |
| --- | --- | --- |
| < 100 | < 100 | Cn1nc(N2CCC(=O)NC2=O)c2ccc(N3CCN(CC4CCN(c5cccc(S(=O)(=O)N6CCC(Nc7ncc(C(F)(F)F)c(-c8cnn(CC(F)(F)F)c8)n7)CC6)c5)CC4)CC3)cc21 [Example 67, 1-(1-methyl-6-(4-((1-(3-((4-((4-(1-(2,2,2-trifluoroethyl)-1H-pyrazol-4-yl)-5-(trifluoromethyl)pyrimidin-2-yl)amino)-piperidin-1-yl)sulfonyl)phenyl)piperidin-4-yl)methyl)-piperazin-1-yl)-1H-indazol-3-yl)-dihydropyrimidine-2,4(1H,3H)-dione] |
| < 100 | < 100 | Cn1nc(N2CCC(=O)NC2=O)c2cc(F)c(N3CCN(Cc4cccc(S(=O)(=O)N5CC[C@H](Nc6ncc(C(F)(F)F)c(-c7cnn(CC(F)(F)F)c7)n6)[C@H](F)C5)c4)CC3)cc21 [Example 73, 1-(5-fluoro-6-(4-(3-(((3R,4S)-3-fluoro-4-((4-(1-(2,2,2-trifluoroethyl)-1H-pyrazol-4-yl)-5-(trifluoromethyl)pyrimidin-2-yl)amino)piperidin-1-yl)sulfonyl)-benzyl)piperazin-1-yl)-1-methyl-1H-indazol-3-yl)dihydropyrimidine-2,4(1H,3H)-dione] |
| < 100 | < 100 | Cn1nc(N2CCC(=O)NC2=O)c2ccc(C3CCN(Cc4cccc(S(=O)(=O)[C@H]5CC[C@H](Nc6ncc(C(F)(F)F)c(-c7cnn(CC(F)(F)F)c7)n6)CC5)c4)CC3)cc21 [Example 74, 1-(1-methyl-6-(1-(3-(((1r,4r)-4-((4-(1-(2,2,2-trifluoroethyl)-1H-pyrazol-4-yl)-5-(trifluoromethyl)pyrimidin-2-yl)-amino)cyclohexyl)sulfonyl)benzyl)-piperidin-4-yl)-1H-indazol-3-yl)dihydro-pyrimidine-2,4(1H,3H)-dione] |
| < 100 | < 100 | CC(Cc1cccc(S(=O)(=O)N2CCC(Nc3ncc(C(F)(F)F)c(-c4cnn(CC(F)(F)F)c4)n3)CC2)c1)CN1CCC(c2ccc3c(N4CCC(=O)NC4=O)nn(C)c3c2)CC1 (stereo not drawn) [Example 78, 1-(1-methyl-6-(1-(2-methyl-3-(3-((4-((4-(1-(2,2,2-trifluoroethyl)-1H-pyrazol-4-yl)-5-(trifluoromethyl)-pyrimidin-2-yl)amino)piperidin-1-yl)sulfonyl)-phenyl)propyl)piperidin-4-yl)-1H-indazol-3-yl)dihydro-pyrimidine-2,4(1H,3H)-dione] |
| < 100 | < 100 | Cc1ncsc1-c1ccc([C@H](C)NC(=O)[C@@H]2C[C@@H](O)CN2C(=O)[C@@H](NC(=O)C2(F)CC2)C(C)(C)SCC2CCN(Cc3cccc(S(=O)(=O)N4CCC(Nc5ncc(C(F)(F)F)c(-c6cnn(CC(F)(F)F)c6)n5)CC4)c3)CC2)cc1 [Example 77, (2S,4R)-1-((R)-2-(1-fluorocyclopropane-1-carboxamido)-3-methyl-3-(((1-(3-((4-((4-(1-(2,2,2-trifluoroethyl)-1H-pyrazol-4-yl)-5-(trifluoromethyl)pyrimidin-2-yl)-amino)piperidin-1-yl)sulfonyl)-benzyl)-piperidin-4-yl)methyl)thio)-butanoyl)-4-hydroxy-N-((S)-1-(4-(4-methylthiazol-5-yl)phenyl)ethyl)-pyrrolidine-2-carboxamide] |
| < 100 | < 100 | Cn1nc(N2CCC(=O)NC2=O)c2ccc(N3CCC(CN4CCC(S(=O)(=O)N5CCC(Nc6ncc(C(F)(F)F)c(-c7cnn(CC(F)(F)F)c7)n6)CC5)CC4)CC3)cc21 [Example 92, 1-(1-methyl-6-(4-((4-((4-((4-(1-(2,2,2-trifluoroethyl)-1H-pyrazol-4-yl)-5-(trifluoromethyl)pyrimidin-2-yl)amino)-piperidin-1-yl)sulfonyl)-piperidin-1-yl)methyl)piperidin-1-yl)-1H-indazol-3-yl)dihydropyrimidine-2,4(1H,3H)-dione] |

The next lines start with the molecule.

| SMILES | IC50 (CDK2 [1]) [nM] | DC50 (CDK2 [2]) [nM] |
| --- | --- | --- |
| C[C@@H]1CN(S(=O)(=O)c2cccc(CN3CCC(c4ccc5c(N6CCC(=O)NC6=O)nn(C)c5c4)CC3)c2)CC[C@@H]1Nc1ncc(C(F)(F)F)c(-c2cnn(CC(F)(F)F)c2)n1 [Example 34, 1-(1-methyl-6-(1-(3-(((3R,4S)-3-methyl-4-((4-(1-(2,2,2-trifluoroethyl)-1H-pyrazol-4-yl)-5-(trifluoromethyl)-pyrimidin-2-yl)amino)piperidin-1-yl)-sulfonyl)benzyl)piperidin-4-yl)-1H-indazol-3-yl)dihydropyrimidine-2,4(1H,3H)-dione] | 100 to 500 | < 100 |
| O=C1CCN(c2ccc(N3CCN(Cc4cccc(S(=O)(=O)N5CCC(Nc6ncc(C(F)(F)F)c(-c7cnn(CC(F)(F)F)c7)n6)CC5)c4)CC3)c(F)c2)C(=O)N1 [Example 13, 1-(3-fluoro-4-(4-(3-((4-((4-(1-(2,2,2-trifluoroethyl)-1H-pyrazol-4-yl)-5-(trifluoromethyl)pyrimidin-2-yl)amino)-piperidin-1-yl)sulfonyl)benzyl)-piperazin-1-yl)phenyl)dihydro-pyrimidine-2,4(1H,3H)-dione] | < 100 | < 100 |
| Cn1cc(-c2nc(NC3CCN(S(=O)(=O)c4cccc(CN5CCC(c6ccc7c(N8CCC(=O)NC8=O)nn(C)c7c6)CC5)c4)CC3)ncc2C(F)(F)F)cn1 [Example 33, 1-(1-methyl-6-(1-(3-((4-((4-(1-methyl-1H-pyrazol-4-yl)-5-(trifluoromethyl)-pyrimidin-2-yl)amino)piperidin-1-yl)-sulfonyl)benzyl)piperidin-4-yl)-1H-indazol-3-yl)dihydropyrimidine-2,4(1H,3H)-dione] | < 100 | < 100 |
| O=C1CCC(N2C(=O)c3cc(F)c(N4CCN(Cc5cccc(S(=O)(=O)N6CCC(Nc7ncc(C(F)(F)F)c(-c8cnn(CC(F)(F)F)c8)n7)CC6)c5)CC4)cc3C2=O)C(=O)N1 (stereo not drawn) [Example 1, 2-(2,6-dioxopiperidin-3-yl)-5-fluoro-6-(4-(3-((4-((4-(1-(2,2,2-trifluoroethyl)-1H-pyrazol-4-yl)-5-(trifluoromethyl)pyrimidin-2-yl)amino)piperidin-1-yl)sulfonyl)benzyl)piperazin-1-yl)isoindoline-1,3-dione] | 100 to 500 | 100 to 500 |
| O=C1CCC(N2C(=O)c3cc(F)c(N4CCN(Cc5cccc(S(=O)(=O)N6CCC(Nc7ncc(C(F)(F)F)c(-c8cnn(CC(F)F)c8)n7)CC6)c5)CC4)cc3C2=O)C(=O)N1 (stereo not drawn) [Example 22, 5-(4-(3-((4-((4-(1-(2,2-difluoroethyl)-1H-pyrazol-4-yl)-5-(trifluoromethyl)-pyrimidin-2-yl)amino)-piperidin-1-yl)sulfonyl)benzyl)piperazin-1-yl)-2-(2,6-dioxopiperidin-3-yl)-6-fluoroiso-indoline-1,3-dione] | 100 to 500 | < 100 |
| O=C1CCC(c2ccc(N3CCN(Cc4cccc(S(=O)(=O)N5CCC(Nc6ncc(C(F)(F)F)c(-c7cnn(CC(F)(F)F)c7)n6)[C@H](F)C5)c4)CC3)c(F)c2)C(=O)N1 (mixture of isomers) [Example 29, Rac-3-(3-fluoro-4-(4-(3-(((3R,4S)-3-fluoro-4-((4-(1-(2,2,2-trifluoroethyl)-1H-pyrazol-4-yl)-5-(trifluoromethyl)-pyrimidin-2-yl)amino)piperidin-1-yl)-sulfonyl)benzyl)piperazin-1-yl)phenyl)-piperidine-2,6-dione] | < 100 | < 100 |
